pEC50: −log10 of the molar value. Like-named read-outs stand apart in the source and are kept apart here.
Legend:
[1] = biological target: T1, 5-HT2A receptor (Homo sapiens, UniProt P28223); assay: Serotonin receptor 5-HT2 functional assay (Gq dissociation BRET or Gq-dependent calcium flux), 5-HT2A; format: cell-based; details: for 5-HT2A BRET Eff %: efficacy relative to 4-hydroxytryptamine
T1 construct: expressed in transfected cells; host or cells: HEK293T

[2] = biological target: T2, 5-HT2B receptor (Homo sapiens, UniProt P41595); assay: Serotonin receptor 5-HT2 functional assay (Gq dissociation BRET or Gq-dependent calcium flux), 5-HT2B; format: cell-based; details: Table 4, at least three replicate trials; for 5-HT2B BRET Eff %: efficacy relative to 4-hydroxytryptamine; for pEC50 / EC50 / 5-HT2B BRET EC50 (nM): relative to 4-hydroxytryptamine; for pEC50: read-out: 5-HT2B BRET EC50; for EC50: 5-HT2B BRET EC50 (nM)
T2 construct: expressed in transfected cells; host or cells: HEK293T
T2 sequence (P41595 whole entry): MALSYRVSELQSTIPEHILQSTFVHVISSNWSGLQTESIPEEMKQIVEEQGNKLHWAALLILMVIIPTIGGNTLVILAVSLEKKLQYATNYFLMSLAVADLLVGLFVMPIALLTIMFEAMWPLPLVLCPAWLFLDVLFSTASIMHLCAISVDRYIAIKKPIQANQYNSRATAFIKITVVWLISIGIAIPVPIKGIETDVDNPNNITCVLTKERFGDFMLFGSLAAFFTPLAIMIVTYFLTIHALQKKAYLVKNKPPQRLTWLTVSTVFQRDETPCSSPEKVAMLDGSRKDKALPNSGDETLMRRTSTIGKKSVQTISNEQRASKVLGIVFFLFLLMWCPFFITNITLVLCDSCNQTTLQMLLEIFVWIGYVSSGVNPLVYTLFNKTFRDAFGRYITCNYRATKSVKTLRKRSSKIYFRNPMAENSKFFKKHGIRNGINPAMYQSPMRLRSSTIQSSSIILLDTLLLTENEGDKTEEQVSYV

[3] = biological target: T3, 5-HT2C receptor (Homo sapiens, UniProt P28335); assay: cell-based
T3 construct: expressed in transfected cells; host or cells: HEK293T
T3 sequence (P28335 33-458): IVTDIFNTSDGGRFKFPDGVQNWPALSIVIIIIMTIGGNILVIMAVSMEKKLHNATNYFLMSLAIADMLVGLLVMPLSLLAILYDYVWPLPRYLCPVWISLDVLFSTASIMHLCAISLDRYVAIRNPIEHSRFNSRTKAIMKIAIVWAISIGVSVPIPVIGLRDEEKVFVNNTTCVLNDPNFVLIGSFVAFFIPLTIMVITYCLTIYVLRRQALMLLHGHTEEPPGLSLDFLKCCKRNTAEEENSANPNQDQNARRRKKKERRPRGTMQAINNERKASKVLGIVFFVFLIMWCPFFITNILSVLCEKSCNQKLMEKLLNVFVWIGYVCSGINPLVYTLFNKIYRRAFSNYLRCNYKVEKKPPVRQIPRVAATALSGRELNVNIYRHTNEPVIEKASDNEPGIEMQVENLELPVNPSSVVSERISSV

[4] = Table 4, at least three replicate trials
[5] = Table 4, relative to 4-hydroxytryptamine, at least three replicate trials, read-out: 5-HT2A BRET EC50
[6] = Table 4, efficacy relative to 4-hydroxytryptamine, at least three replicate trials
[7] = Table 4, relative to 4-hydroxytryptamine, at least three replicate trials, read-out: 5-HT2C BRET EC50
[8] = Table 4, relative to 4-hydroxytryptamine, at least three replicate trials

T1 sequence (P28223 whole entry): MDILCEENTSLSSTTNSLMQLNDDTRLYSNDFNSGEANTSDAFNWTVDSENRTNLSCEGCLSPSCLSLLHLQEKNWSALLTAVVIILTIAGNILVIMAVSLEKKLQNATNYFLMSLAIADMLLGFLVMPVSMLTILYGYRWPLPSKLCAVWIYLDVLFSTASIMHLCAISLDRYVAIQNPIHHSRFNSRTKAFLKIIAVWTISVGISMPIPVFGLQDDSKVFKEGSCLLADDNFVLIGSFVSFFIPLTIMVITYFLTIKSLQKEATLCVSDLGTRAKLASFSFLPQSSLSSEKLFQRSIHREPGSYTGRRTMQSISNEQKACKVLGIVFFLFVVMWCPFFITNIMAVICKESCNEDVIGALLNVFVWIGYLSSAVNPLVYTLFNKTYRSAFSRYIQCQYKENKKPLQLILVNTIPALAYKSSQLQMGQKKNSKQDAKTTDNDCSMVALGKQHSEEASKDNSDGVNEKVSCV

Row | Compound | 5-HT2A BRET Eff % [1, 4] | pEC50 [1, 5] | 5-HT2B BRET Eff % [2] | pEC50 [2] | 5-HT2C BRET Eff % [3] [%] | pEC50 [3] | pEC50 [1] | EC50 [2] [nM] | 5-HT2C BRET Eff % [3, 6] [%] | pEC50 [3, 7] | 5-HT2B BRET EC50 (nM) [2] | 5-HT2A BRET EC50 (nM) [1, 8]
1 | NCCc1c[nH]c2cccc(O)c12 [4-hydroxytryptamine, reference compound] | 100% | 8.54 | 100% | 9.10 | 99 | 9.46 |  |  |  |  |  | 
2 | Cc1cccc2c(CCN(C)C)c[nH]c12 [7,N,N-TMT] | 80% |  | 36% |  |  |  | 6.63 | 74 | 79 | 7.93 |  | 
3 | Cc1ccc(O)c2c(CCN(C)C)c[nH]c12 [Compound 1, 3-[2-(Dimethylamino)ethyl]-7-methylindol-4-ol] | 72% |  | inactive |  | 79 | 8.16 | 7.18 |  |  |  | inactive | 
4 | CN(C)CCc1c[nH]c2c(CCO)ccc(O)c12 [Compound 7, 3-[2-(Dimethylamino)ethyl]-7-(2-hydroxyethyl)indol-4-ol] | 81% | 7.12 | inactive |  |  |  |  |  | 76 | 8.25 | inactive | 
5 | CN(C)CCc1c[nH]c2c(CCF)ccc(O)c12 [Compound 8, 3-[2-(Dimethylamino)ethyl]-7-(2-fluoroethyl)indol-4-ol] | inactive |  | inactive |  | 56 | 5.41 |  |  |  |  | inactive | inactive
6 | CCc1ccc(O)c2c(CCN(C)C)c[nH]c12 [Compound 9, 3-[2-(Dimethylamino)ethyl]-7-ethylindol-4-ol] | 78% |  | inactive |  | 67 | 7.55 | 6.81 |  |  |  | inactive | 
7 | CC(C)c1ccc(O)c2c(CCN(C)C)c[nH]c12 [Compound 10, 3-[2-(Dimethylamino)ethyl]-7-isopropylindol-4-ol] | 40% |  | inactive |  | 60 | 7.47 | 5.97 |  |  |  | inactive | 
8 | CC(C)c1ccc(O)c2c(CCN(C)C)cn(C)c12 [Compound 11, 3-[2-(Dimethylamino)ethyl]-7-isopropyl-1-methylindol-4-ol] | 66% |  | inactive |  | 88 | 7.66 | 5.94 |  |  |  | inactive | 
9 | CCN(C)CCc1c[nH]c2c(C)ccc(O)c12 [Compound 14] | 63% |  | inactive |  | 108 | 8.38 | 7.09 |  |  |  | inactive | 
10 | Cc1ccc(O)c2c(CCN(C)C(C)C)c[nH]c12 [Compound 16, 3-[2-[Isopropyl(methyl)amino]ethyl]-7-methylindol-4-ol] | 77% |  | inactive |  | 103 | 7.28 | 6.82 |  |  |  | inactive | 
11 | Cc1ccc(O)c2c(CCN(C)C3CC3)c[nH]c12 [Compound 17] | 54% |  | inactive |  | 111 | 8.49 | 7.89 |  |  |  | inactive | 
12 | Cc1ccc(OP(=O)(O)O)c2c(CCN(C)C)c[nH]c12 [Compound 24] | 69% |  | inactive |  | 69 | 6.43 | 5.94 |  |  |  | inactive | 
13 | COc1ccc(C)c2[nH]cc(CCN(C)C)c12 [Compound 26, [2-(4-Methoxy-7-methylindol-3-yl)ethyl]dimethylamine] | 68% |  | inactive |  | 113 | 8.46 | 7.02 |  |  |  | inactive | 
14 | Cc1cc(F)c(O)c2c(CCN(C)C)c[nH]c12 [Compound 30] | 64% |  | 8% |  |  |  |  |  |  |  |  | 
15 | Cc1c(F)cc(O)c2c(CCN(C)C)c[nH]c12 [Compound 33, 3-[2-(Dimethylamino)ethyl]-6-fluoro-7-methylindol-4-ol] | 78% |  | inactive |  | 102 | 8.85 | 7.70 |  |  |  | inactive | 
16 | COc1cc(F)c(C)c2[nH]cc(CCN(C)C)c12 [Compound 34, [2-(6-Fluoro-4-methoxy-7-methylindol-3-yl)ethyl]dimethylamine] | 84% |  | inactive |  | 94 | 8.74 | 7.77 |  |  |  | inactive | 
17 | CN(C)CCc1c[nH]c2cc(F)cc(O)c12 [Compound 36, 3-[2-(Dimethylamino)ethyl]-6-fluoroindol-4-ol] | 92% |  | 62% |  | 93 | 8.77 | 8.54 | 4.2 |  |  |  | 
18 | Cc1cc(O)c2c(CCN(C)C)c[nH]c2c1 [Compound 37, 3-[2-(Dimethylamino)ethyl]-6-methylindol-4-ol] | 88% |  | 41% |  | 95 | 8.82 | 7.23 | 189 |  |  |  | 
19 | Cc1ccc(OCc2ccc(C(F)(F)F)cc2)c2c(CCN(C)C)c[nH]c12 [Compound 39, Dimethyl[2-[7-methyl-4-[4-(trifluoromethyl)benzyloxy]indol-3-yl]ethyl]amine] | 90% | 5.12 | inactive |  |  |  |  |  | 81 | 6.88 | inactive | 
20 | CN(C)CCc1c[nH]c2c(C#N)ccc(O)c12 [Compound 64, 3-[2-(Dimethylamino)ethyl]-4-hydroxyindole-7-carbonitrile] | 49% |  | inactive |  | 79 | 7.06 | 6.57 |  |  |  | inactive | 
21 | CN(C)CCc1c[nH]c2c(C(N)=O)ccc(O)c12 [Compound 65, 3-[2-(Dimethylamino)ethyl]-4-hydroxyindole-7-carboxamide] | inactive |  | inactive |  |  |  |  |  | 69 | 5.00 | inactive | inactive
22 | Cc1ccc(O)c2c(C[C@H]3CCN3C)c[nH]c12 [Compound 77, 7-Methyl-3-[((S)-1-methylazetidin-2-yl)methyl]indol-4-ol] | 69% | 7.31 | 41% | 7.24 |  |  |  |  | 66 | 8.14 |  | 
23 | CN(C)CCc1c[nH]c2cccc(O)c12 [psilocin, reference compound] | 82% |  | 63% |  |  |  |  |  |  |  |  | 
